Assay results as given in PubChem BioAssay AID2649 (Southern Research Specialized Biocontainment Screening …, 2010).
The source made the active and inactive calls.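 How the source made its calls: active means lowest viability as percent of untreated cell control, measured with 5% serum, under 70% cytotoxic; inactive means the rest.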

Experiments:
[1] = test system: MAGI-CCR5 HeLa cells viability, MTS, 10% serum; test: MAGI-CCR5 HeLa cell viability loss – MTS, 5% and 10% serum, cytotoxicity control for HIV-1 antiviral lead project, SAR follow-up (AID 2649)
[2] = test system: MAGI-CCR5 HeLa cells viability, MTS, 5% serum; test: as above

Structure (SMILES) | CC50 [1] [µM] | CC50 [2]
CCC(Sc1nc2ccsc2c(=O)n1Cc1ccc(C(=O)O)cc1)C(=O)Nc1ccc(C)c(Cl)c1 (stereo not drawn) | > 100 | > 100 µM (inactive)
O=C(O)CCCN1C(=O)/C(=C/c2ccc(-c3nc4ccccc4s3)o2)SC1=S | > 100 | > 100 µM (inactive)
O=C(O)c1ccccc1N=Nc1c(O)[nH]c2ccc([N+](=O)[O-])cc12 | > 100 | > 100 µM (inactive)
CC(C)NC(=O)c1sc(=S)n2c1[nH]c(=O)c1ccc(C(=O)NCCc3ccc(Cl)cc3)cc12 | > 100 | > 100 µM (inactive)
CCC(C)(C)C1CCc2c(sc(NC(=O)c3ccccc3C(=O)O)c2C#N)C1 (stereo not drawn) | > 100 | 
N#C/C(=C\c1ccc(O)c([N+](=O)[O-])c1)c1nc2ccccc2s1 | > 100 | > 100 µM (inactive)
CCOC(=O)C1=C(C)N=c2sc(=Cc3ccc(OCC(=O)O)cc3)c(=O)n2C1c1ccc(OC(C)C)cc1 (stereo not drawn) | > 100 | 
COc1cc(/C=N/NS(=O)(=O)c2ccc3ccccc3c2)ccc1OCc1ccc(C(=O)O)cc1 | > 100 | > 100 µM (inactive)
O=[N+]([O-])c1cc([N+](=O)[O-])c2oc(-c3ccccc3)c(Br)c2c1O | > 100 | 38.7 µM
Oc1c(Cl)cc(Cl)c(Cl)c1Cc1c(O)c(Cl)cc(Cl)c1Cl | > 100 | 56.5 µM
Cc1c2c(=O)n(-c3nc4ccccc4s3)nc-2cc(O)n1Cc1ccccc1 | > 100 | > 100 µM (inactive)
CC(C)(C)c1cc(-c2csc(Nc3ccccc3)[n+]2Cc2ccc(C(=O)O)cc2)cc(C(C)(C)C)c1O | 62.4 | 54.9 µM
O=C1NC(=S)N(c2ccc(F)cc2)C(=O)/C1=C\c1ccoc1 | > 100 | 
COC(=O)c1sc(-c2ccc(C(C)(C)C)cc2)cc1NC(=O)c1ccccc1C(=O)O | > 100 | 88.7 µM
N#C/C(=C\c1ccc(OCc2ccc(Cl)cc2)cc1)C(=O)Nc1cccc(C(=O)O)c1 | > 100 | > 100 µM (inactive)
COc1cc(/C=C2\SC(=O)N(c3ccccc3Cl)C2=O)cc([N+](=O)[O-])c1O | > 100 | 
CCOC(=O)c1sc(N2C(=O)C(O)=C(C(=O)c3ccc(C)o3)C2c2cccc([N+](=O)[O-])c2)nc1C (stereo not drawn) | > 100 | > 100 µM (inactive)
O=C(N/N=C/c1c(O)n(C2CCCCC2)c(=S)[nH]c1=O)c1ccccc1O | > 100 | > 100 µM (inactive)
CSc1nnc(-c2ccccc2N=Cc2c(C)[nH]n(-c3ccc4ccccc4c3)c2=O)c(=O)[nH]1 | > 100 | > 100 µM (inactive)
CCOc1cc(/C=C2\SC(=O)N(CC(=O)Nc3ccccc3F)C2=O)cc([N+](=O)[O-])c1O | > 100 | > 100 µM (inactive)
Cc1c(Cl)cccc1NS(=O)(=O)c1ccc2c(c1)C1C=CCC1C(c1ccc(C(=O)O)cc1)N2 (stereo not drawn) | > 100 | 71.7 µM
